Experimental data from EP0257992A2, “Prophylactic and therapeutic agents for cerebral ischemia” (YAMANOUCHI PHARMACEUTICAL CO. LTD., priority 1986, dated 1988).
Marks after values point to notes of the source that are not given here.

What was measured:
[1] = system: autoblood-injected rats; assay: Neural condition (duration of forced posture) of autoblood-injected rats; format: in vivo, Male Wistar rats; details: 300 mg/kg i.p. once a day, 30 minutes after administration
Description: (§1) Male Wistar rats (weighing about 300 g) were anesthesized with pentobarbital (40 mg/kg i.e.) and fixed on a brain normal position fixing device. In order to form hematoma in the brain, 0.2 cc of autoblood previously collected from the tail vein was injected in the site of the brain at 4 mm to the right from the arrow suture, at 2 mm to the tail side from the crown suture and at 4 mm of the brain surface. The left rear paw was forced onto a stand having a height of 4.5 cm and the time from which the forced posture was maintained was measured and evaluated as neural condition. The ester was intraperitoneally administered immediately after the injection of autoblood and then once a day. Physiological saline alone was given to the control group. The measurement of neural condition was made after the operation daily for 4 consecutive days, 30 minutes after administration.
(1) mg/kg i.p.: amount of a single dose given. (2) Unit: second (3) Number of days after the operation. *5% is a significant difference in duration as compared to the control group (group given physiological saline). **1% is a significant difference in duration as compared to the control group. Number of animals: 10 - 11.

[2] = system: Malonedealdehyde in the Brain of Rats Injected with Autoblood; assay: Malonedealdehyde (lipid peroxide) content in the brain of autoblood-injected rats; format: in vivo, Male Wistar rats; details: 300 mg/kg i.p. once a day; right hemispherical brain on the fourth day after the operation; control 168±15
Description: as §1, with “The measurement of neural condition was made after the operation daily for 4 consecutive days, 30 minutes after administration.” left out
Immediately after the observation of the neural condition on the fourth day of the operation, the head of each rat was cut off and the right hemispherical brain was isolated. The lipid peroxides in the brain were fluorometrically determined by forming about 10% of a homogenate with 1.15% potassium chloride, taking 0.1 ml of the homogenate and measuring using malonedealdehyde as a standard substance according to Yagi's method.
Futher in Table IV are shown the results of the effect on malonedealdehyde in the brain. The results were evaluated by the Student's t-test. […]

[3] = Acute toxicity (LD50) on intraperitoneal injection into mice; details: mouse, in vivo, ip, read-out: acute toxicity (LD₅₀)
Description: The isopropyl ester (I) and salts have an acute toxicity (LD₅₀) of approximately 5.3 g/kg on intraperitoneal injection into mice.

[4] = system: rats ligated at carotids (both sides); assay: Death of rats ligated at both carotids (cerebral ischemia); format: in vivo, male Wistar rats; details: 300 mg/kg i.p. per single dose, given immediately after and 1 and 2 hours after ligation; dead animals 24 hours after ligation; 24 animals; control 21 dead
Description: Both carotids of male Wistar rats (weighting about 300 g) were permanently ligated to cause a cerebral ischemic state. The rats suffered neural conditions (paralysis or spasm of the limbs, etc.) and most of them died in 24 hours. The influence of the ester on death 24 hours afer ligation was examined. The ester was intraperitoneally administered immediately after the ligation, and 1 and 2 hours after the ligation. Physiological saline alone was given to the control group.
(1) mg/kg i.p.: amount of a single dose given. (2) Number of dead animals 24 hours after ligation *5% is a significant difference in death rate compared to the control group (group given physiological saline.

[5] = system: low oxygen-loaded mice; assay: Survival time of low oxygen-loaded mice; format: in vivo, Male ICR mice; details: 300 mg/kg single dose 10 minutes before inhalation of 95.3% nitrogen / 4.7% oxygen; 14 animals; control 201±18
Description: Male ICR mice (weighing about 30 g) were put in a glass vessel having a volume of 2 liters, equipped with an inhalation opening and an exhaust opening. A gaseous mixture of 95.3% nitrogen and 4.7% oxygen was blown into the vessel at 5 ℓ/min. to cause a low oxygen state, and the time for mice to die was measured. The ester was intravenously administered 10 minutes before the inhalation of the gaseous mixture. Only physiological saline was given to the control group.
(1) mg/kg i.p.: amount of a single dose given. (2) Unit: second * 5%is a significant difference in death rate as compared to the control group (group given physiological saline).

**Q.** With `CC(C)OC(=O)CNC(=O)[C@H](CS)NC(=O)CC[C@H](N)C(=O)O` [Glutathione monoisopropyl ester, isopropyl γ-L-glutamyl-L-cysteinyl glycinate] as the compound, how does the “Duration, Day 1” value ([1]; Day 1 after the operation, control 42±10) read?
**A.** 11 ± 5 s

**Q.** And the “Duration, Day 2” value ([1]; Day 2 after the operation, control 53±12)?
**A.** 22 ± 11 s

**Q.** And the “Duration, Day 3” value ([1]; Day 3 after the operation, control 43±11)?
**A.** 8 ± 1 s

**Q.** And the “Duration, Day 4” value ([1]; Day 4 after the operation, control 31±10)?
**A.** 7 ± 1 s

**Q.** And the “Content of Malonedealdehyde” value [2]?
**A.** 97±20 nmol/g wet weight

**Q.** And the LD50 [3]?
**A.** ~5300 mg/kg

**Q.** And the “Number of Dead Animals” value [4]?
**A.** 15*

**Q.** And the “Survival Time” value [5]?
**A.** 262 ± 22 s
